According to patent publication US11793885B2, “Substituted benzo[5,6][1,4]diazepino[1,2-a]indoles for the treatment of proliferative disorders” (priority 2017, dated 2023):

System: Namalwa (Burkitt's lymphoma)
Assay: in vitro cytotoxicity assay, Namalwa cells
Type: cell-based, human
Details: Homo sapiens; free cytotoxic compound
From the text: (§1) Following cell lines were used for the study: KB (cervical carcinoma, ATCC), NCI-H2110 (Non Small Cell Lung Carcinoma, ATCC), Namalwa (Burkitt's lymphoma, ATCC), Ishikawa (endometrial adenocarcinoma, ECACC), EOL-1 (Acute Myeloid Leukemia, ECACC), JEG-3 (choriocarcinoma, ATCC), JHOS-4 (ovarian adenocarcinoma, Riken Bioresource Center), OV-90 (ovarian adenocarcinoma, ATCC), SKOV-6 (ovarian adenocarcinoma, Memorial Sloan Kettering Cancer Center), Igrov-1 (ovarian adenocarcinoma, National Cancer Institute), KB-GRC1-MDR (cervical carcinoma/Pgp positive, gift from Dr. Roninson at the Ordway Research Institute) and T47D (breast epithelial cancer, ATCC). The cells were maintained and plated for the cytotox experiments in media recommended by the manufacturers. Cells were plated in the 96-well flat bottom plates at a seeding density of 800 cells per well (Ishikawa, JEG-3 or SK-OV-6), 1,000 cells per well (KB, Namalwa, EOL-1, OV-90 and Igrov-1) or 2,000 cell per well (NCI H2110, JHOS-4 and T47D). Conjugates or free drug compounds were diluted in RPMI-1640 (Life Technologies) supplemented with heat-inactivated 100 FBS (Life Technologies) and 0.1 mg/ml gentamycin (Life Technologies), and added to the plated cells. To determine specificity of cytotoxic activity of the conjugates an excess of unconjugated antibody was added to a separate set of diluted conjugates (+block samples, IC50 table). The plates were incubated at 37° C., 500 CO2 for either 4 days (JHOS-4 and T47D cells) or 5 days (KB, NCI H2110, Ishikawa, EOL-1, JEG-3, OV-90, SK-OV-6, NC-H441 and Igrov-1 cells). Alamar blue assay (Invitrogen) was used to determine viability of JHOS-4 and T47D cells, and WST-8 assay (Donjindo Molecular Technologies, Inc.) was applied for viability of KB, NCI H2110, Namalwa, Ishikawa, EOL-1, JEG-4, OV-90, SK-OV-6, NCI-H4441 and Igrov-1 cells. The assays were performed in accordance with the manufacturer's protocols. Killing curves and IC50 were generated using a sigmoidal dose-response nonlinear regression curve fit (GraphPad Software Inc.).

Row | SMILES | IC50 [pM]
1 | COC(=O)c1cc2cc(NC(=O)c3cc(NC(=O)CCCOc4cc5c(cc4OC)C(=O)N4c6ccccc6C[C@H]4C=N5)cn3C)ccc2s1 [Compound 7] | 20
2 | COC(=O)CCNC(=O)c1cc2cc(NC(=O)c3cc(NC(=O)CCCOc4cc5c(cc4OC)C(=O)N4c6ccccc6C[C@H]4C=N5)cn3C)ccc2s1 [Compound 9] | 30
3 | COc1cc2c(cc1OCCCC(=O)Nc1ccc(-c3cc(C(=O)NCC(C)(C)S)n(C)c3)cc1)NC(S(=O)(=O)O)[C@@H]1Cc3ccccc3N1C2=O (stereo partly drawn) [Compound 30] | 700
4 | COC(=O)c1cc2cc(NC(=O)c3cc(Nc4cccc(COc5cc6c(cc5OC)C(=O)N5c7ccccc7C[C@H]5C=N6)c4)cn3C)ccc2s1 [Compound 63] | 300
5 | COc1cc2c(cc1OCCCC(=O)Nc1cc(C(=O)Nc3ccc(-c4cc(C(=O)NCC(C)(C)SSC)n(C)c4)cc3)n(C)c1)N=C[C@@H]1Cc3ccccc3N1C2=O [Compound 85] | 30
6 | COc1cc2c(cc1OCCCC(=O)Nc1cn(C)c(C(=O)Nc3ccc(-c4cc(C(=O)NCC(C)(C)SSC)n(C)c4)cn3)n1)N=C[C@@H]1Cc3ccccc3N1C2=O [Compound 103] | 20
7 | COc1cc2c(cc1OCCCC(=O)Nc1cn(C)c(C(=O)Nc3ccc(-c4csc(C(=O)NCC(C)(C)SSC)n4)cc3)n1)N=C[C@@H]1Cc3ccccc3N1C2=O [Compound 113] | 70
8 | COc1cc2c(cc1OCCCC(=O)Nc1cn(C)c(C(=O)Nc3ccc(-c4cc(C(=O)NCC(C)(C)SSC)n(C)c4)cc3)n1)N=C[C@@H]1Cc3ccccc3N1C2=O [Compound 125] | 10
9 | COc1cc2c(cc1OCCCC(=O)Nc1cc(C(=O)Nc3cc(C(=O)NCC(C)(C)SSC)n(C)c3)n(C)c1)N=C[C@@H]1Cc3ccccc3N1C2=O [Compound 132] | 90
10 | COc1cc2c(cc1OCCCC(=O)Nc1cn(C)c(C(=O)Nc3ccc4sccc4c3)n1)N=C[C@@H]1Cc3ccccc3N1C2=O [Compound 137] | 20
11 | COC(=O)CCNC(=O)c1cc2cc(NC(=O)c3nc(NC(=O)CCCOc4cc5c(cc4OC)C(=O)N4c6ccccc6C[C@H]4C=N5)cn3C)ccc2s1 [Compound 142] | 10
12 | COc1cc2c(cc1OCCCC(=O)Nc1cn(C)c(C(=O)Nc3ccc(N)cc3)n1)N=C[C@@H]1Cc3ccccc3N1C2=O [Compound 149] | 60
13 | COc1cc2c(cc1OCCCC(=O)Nc1cn(C)c(C(=O)Nc3ccc4sc(C(=O)NCC(C)(C)SSC)cc4c3)n1)N=C[C@@H]1Cc3ccccc3N1C2=O [Compound 155] | 30

System: EOL-1 (Acute Myeloid Leukemia)
Assay: in vitro cytotoxicity assay, EOL-1 cells
Type: cell-based
Details: Homo sapiens, EOL1, 120 h; free cytotoxic compound; 5 days
From the text: as §1

Row | SMILES | IC50 [pM]
14 | COC(=O)CCNC(=O)c1cc2cc(NC(=O)c3cc(NC(=O)CCCOc4cc5c(cc4OC)C(=O)N4c6ccccc6C[C@H]4C=N5)cn3C)ccc2s1 [Compound 9] | 10
15 | COc1cc2c(cc1OCCCC(=O)Nc1ccc(-c3cc(C(=O)NCC(C)(C)S)n(C)c3)cc1)NC(S(=O)(=O)O)[C@@H]1Cc3ccccc3N1C2=O (stereo partly drawn) [Compound 30] | 100
16 | COc1cc2c(cc1OCCCC(=O)Nc1cc(C(=O)Nc3ccc(-c4cc(C(=O)NCC(C)(C)SSC)n(C)c4)cc3)n(C)c1)N=C[C@@H]1Cc3ccccc3N1C2=O [Compound 85] | 8
17 | COc1cc2c(cc1OCCCC(=O)Nc1cn(C)c(C(=O)Nc3ccc(-c4cc(C(=O)NCC(C)(C)SSC)n(C)c4)cc3)n1)N=C[C@@H]1Cc3ccccc3N1C2=O [Compound 125] | 4
18 | COc1cc2c(cc1OCCCC(=O)Nc1cc(C(=O)Nc3cc(C(=O)NCC(C)(C)SSC)n(C)c3)n(C)c1)N=C[C@@H]1Cc3ccccc3N1C2=O [Compound 132] | 40
19 | COc1cc2c(cc1OCCCC(=O)Nc1cn(C)c(C(=O)Nc3ccc4sccc4c3)n1)N=C[C@@H]1Cc3ccccc3N1C2=O [Compound 137] | 10
20 | COC(=O)CCNC(=O)c1cc2cc(NC(=O)c3nc(NC(=O)CCCOc4cc5c(cc4OC)C(=O)N4c6ccccc6C[C@H]4C=N5)cn3C)ccc2s1 [Compound 142] | 6
21 | COc1cc2c(cc1OCCCC(=O)Nc1cn(C)c(C(=O)Nc3ccc4sc(C(=O)NCC(C)(C)SSC)cc4c3)n1)N=C[C@@H]1Cc3ccccc3N1C2=O [Compound 155] | 9

System: KB (cervical carcinoma)
Assay: in vitro cytotoxicity assay, KB cells
Type: cell-based, human
Details: Homo sapiens, KB, 120 h; free cytotoxic compound; 5 days
From the text: as §1

Row | SMILES | IC50 [pM]
22 | COC(=O)CCNC(=O)c1cc2cc(NC(=O)c3cc(NC(=O)CCCOc4cc5c(cc4OC)C(=O)N4c6ccccc6C[C@H]4C=N5)cn3C)ccc2s1 [Compound 9] | 40
23 | COC(=O)c1cc2cc(NC(=O)c3cc(Nc4cccc(COc5cc6c(cc5OC)C(=O)N5c7ccccc7C[C@H]5C=N6)c4)cn3C)ccc2s1 [Compound 63] | 1000
24 | COc1cc2c(cc1OCCCC(=O)Nc1cc(C(=O)Nc3ccc(-c4cc(C(=O)NCC(C)(C)SSC)n(C)c4)cc3)n(C)c1)N=C[C@@H]1Cc3ccccc3N1C2=O [Compound 85] | 10
25 | COc1cc2c(cc1OCCCC(=O)Nc1cn(C)c(C(=O)Nc3ccc(-c4cc(C(=O)NCC(C)(C)SSC)n(C)c4)cn3)n1)N=C[C@@H]1Cc3ccccc3N1C2=O [Compound 103] | 70
26 | COc1cc2c(cc1OCCCC(=O)Nc1cn(C)c(C(=O)Nc3ccc(-c4csc(C(=O)NCC(C)(C)SSC)n4)cc3)n1)N=C[C@@H]1Cc3ccccc3N1C2=O [Compound 113] | 200
27 | COc1cc2c(cc1OCCCC(=O)Nc1cn(C)c(C(=O)Nc3ccc(-c4cc(C(=O)NCC(C)(C)SSC)n(C)c4)cc3)n1)N=C[C@@H]1Cc3ccccc3N1C2=O [Compound 125] | 40
28 | COc1cc2c(cc1OCCCC(=O)Nc1cc(C(=O)Nc3cc(C(=O)NCC(C)(C)SSC)n(C)c3)n(C)c1)N=C[C@@H]1Cc3ccccc3N1C2=O [Compound 132] | 400
29 | COc1cc2c(cc1OCCCC(=O)Nc1cn(C)c(C(=O)Nc3ccc4sccc4c3)n1)N=C[C@@H]1Cc3ccccc3N1C2=O [Compound 137] | 50
30 | COc1cc2c(cc1OCCCC(=O)Nc1cn(C)c(C(=O)Nc3ccc(N)cc3)n1)N=C[C@@H]1Cc3ccccc3N1C2=O [Compound 149] | 200

System: KB-GRC1-MDR (cervical carcinoma/Pgp positive)
Assay: cells
Details: read-out: IC50 KB-MDR
From the text: Following cell lines were used for the study: KB (cervical carcinoma, ATCC), NCI-H2110 (Non Small Cell Lung Carcinoma, ATCC), Namalwa (Burkitt's lymphoma, ATCC), Ishikawa (endometrial adenocarcinoma, ECACC), EOL-1 (Acute Myeloid Leukemia, ECACC), JEG-3 (choriocarcinoma, ATCC), JHOS-4 (ovarian adenocarcinoma, Riken Bioresource Center), OV-90 (ovarian adenocarcinoma, ATCC), SKOV-6 (ovarian adenocarcinoma, Memorial Sloan Kettering Cancer Center), Igrov-1 (ovarian adenocarcinoma, National Cancer Institute), KB-GRC1-MDR (cervical carcinoma/Pgp positive, gift from Dr. Roninson at the Ordway Research Institute) and T47D (breast epithelial cancer, ATCC). The cells were maintained and plated for the cytotox experiments in media recommended by the manufacturers. Cells were plated in the 96-well flat bottom plates at a seeding density of 800 cells per well (Ishikawa, JEG-3 or SK-OV-6), 1,000 cells per well (KB, Namalwa, EOL-1, OV-90 and Igrov-1) or 2,000 cell per well (NCI H2110, JHOS-4 and T47D). […] To determine specificity of cytotoxic activity of the conjugates an excess of unconjugated antibody was added to a separate set of diluted conjugates (+block samples, IC50 table). The plates were incubated at 37° C., […] for either 4 days (JHOS-4 and T47D cells) or 5 days (KB, NCI H2110, Ishikawa, EOL-1, JEG-3, OV-90, SK-OV-6, NC-H441 and Igrov-1 cells). Alamar blue assay (Invitrogen) was used to determine viability of JHOS-4 and T47D cells, and WST-8 assay (Donjindo Molecular Technologies, Inc.) was applied for viability of KB, NCI H2110, Namalwa, Ishikawa, EOL-1, […], OV-90, SK-OV-6, […] and Igrov-1 cells. The assays were performed in accordance with the manufacturer's protocols. Killing curves and IC50 were generated using a sigmoidal dose-response nonlinear regression curve fit (GraphPad Software Inc.).

Row | SMILES | IC50 [pM]
31 | COC(=O)c1cc2cc(NC(=O)c3cc(Nc4cccc(COc5cc6c(cc5OC)C(=O)N5c7ccccc7C[C@H]5C=N6)c4)cn3C)ccc2s1 [Compound 63] | > 5000
32 | COc1cc2c(cc1OCCCC(=O)Nc1cc(C(=O)Nc3ccc(-c4cc(C(=O)NCC(C)(C)SSC)n(C)c4)cc3)n(C)c1)N=C[C@@H]1Cc3ccccc3N1C2=O [Compound 85] | > 5000
33 | COc1cc2c(cc1OCCCC(=O)Nc1cn(C)c(C(=O)Nc3ccc(-c4cc(C(=O)NCC(C)(C)SSC)n(C)c4)cn3)n1)N=C[C@@H]1Cc3ccccc3N1C2=O [Compound 103] | 400
34 | COc1cc2c(cc1OCCCC(=O)Nc1cn(C)c(C(=O)Nc3ccc(-c4csc(C(=O)NCC(C)(C)SSC)n4)cc3)n1)N=C[C@@H]1Cc3ccccc3N1C2=O [Compound 113] | 3000
35 | COc1cc2c(cc1OCCCC(=O)Nc1cn(C)c(C(=O)Nc3ccc(-c4cc(C(=O)NCC(C)(C)SSC)n(C)c4)cc3)n1)N=C[C@@H]1Cc3ccccc3N1C2=O [Compound 125] | 900

System: Ishikawa (endometrial adenocarcinoma)
Assay: in vitro cytotoxicity assay, Ishikawa cells
Type: cell-based
Details: Homo sapiens, Ishikawa, 120 h; free cytotoxic compound; 5 days
From the text: as §1

Row | SMILES | IC50 [pM]
36 | COC(=O)CCNC(=O)c1cc2cc(NC(=O)c3cc(NC(=O)CCCOc4cc5c(cc4OC)C(=O)N4c6ccccc6C[C@H]4C=N5)cn3C)ccc2s1 [Compound 9] | 70
37 | COC(=O)c1cc2cc(NC(=O)c3cc(Nc4cccc(COc5cc6c(cc5OC)C(=O)N5c7ccccc7C[C@H]5C=N6)c4)cn3C)ccc2s1 [Compound 63] | 600
38 | COc1cc2c(cc1OCCCC(=O)Nc1cc(C(=O)Nc3ccc(-c4cc(C(=O)NCC(C)(C)SSC)n(C)c4)cc3)n(C)c1)N=C[C@@H]1Cc3ccccc3N1C2=O [Compound 85] | 100
39 | COc1cc2c(cc1OCCCC(=O)Nc1cn(C)c(C(=O)Nc3ccc(-c4cc(C(=O)NCC(C)(C)SSC)n(C)c4)cn3)n1)N=C[C@@H]1Cc3ccccc3N1C2=O [Compound 103] | 50
40 | COc1cc2c(cc1OCCCC(=O)Nc1cn(C)c(C(=O)Nc3ccc(-c4csc(C(=O)NCC(C)(C)SSC)n4)cc3)n1)N=C[C@@H]1Cc3ccccc3N1C2=O [Compound 113] | 200
41 | COc1cc2c(cc1OCCCC(=O)Nc1cn(C)c(C(=O)Nc3ccc(-c4cc(C(=O)NCC(C)(C)SSC)n(C)c4)cc3)n1)N=C[C@@H]1Cc3ccccc3N1C2=O [Compound 125] | 50
42 | COc1cc2c(cc1OCCCC(=O)Nc1cn(C)c(C(=O)Nc3ccc(N)cc3)n1)N=C[C@@H]1Cc3ccccc3N1C2=O [Compound 149] | 100

System: NCI-H2110 (Non Small Cell Lung Carcinoma)
Assay: in vitro cytotoxicity assay, NCI-H2110 cells
Type: cell-based
Details: NCI-H2110, 120 h, free cytotoxic compound; 5 days
From the text: as §1

Row | SMILES | IC50 [pM]
43 | COC(=O)CCNC(=O)c1cc2cc(NC(=O)c3cc(NC(=O)CCCOc4cc5c(cc4OC)C(=O)N4c6ccccc6C[C@H]4C=N5)cn3C)ccc2s1 [Compound 9] | 200
44 | COC(=O)c1cc2cc(NC(=O)c3cc(Nc4cccc(COc5cc6c(cc5OC)C(=O)N5c7ccccc7C[C@H]5C=N6)c4)cn3C)ccc2s1 [Compound 63] | 3000
45 | COc1cc2c(cc1OCCCC(=O)Nc1cc(C(=O)Nc3ccc(-c4cc(C(=O)NCC(C)(C)SSC)n(C)c4)cc3)n(C)c1)N=C[C@@H]1Cc3ccccc3N1C2=O [Compound 85] | 100
46 | COc1cc2c(cc1OCCCC(=O)Nc1cn(C)c(C(=O)Nc3ccc(-c4cc(C(=O)NCC(C)(C)SSC)n(C)c4)cn3)n1)N=C[C@@H]1Cc3ccccc3N1C2=O [Compound 103] | 200
47 | COc1cc2c(cc1OCCCC(=O)Nc1cn(C)c(C(=O)Nc3ccc(-c4csc(C(=O)NCC(C)(C)SSC)n4)cc3)n1)N=C[C@@H]1Cc3ccccc3N1C2=O [Compound 113] | 400
48 | COc1cc2c(cc1OCCCC(=O)Nc1cn(C)c(C(=O)Nc3ccc(-c4cc(C(=O)NCC(C)(C)SSC)n(C)c4)cc3)n1)N=C[C@@H]1Cc3ccccc3N1C2=O [Compound 125] | 60
49 | COc1cc2c(cc1OCCCC(=O)Nc1cc(C(=O)Nc3cc(C(=O)NCC(C)(C)SSC)n(C)c3)n(C)c1)N=C[C@@H]1Cc3ccccc3N1C2=O [Compound 132] | 2000
50 | COc1cc2c(cc1OCCCC(=O)Nc1cn(C)c(C(=O)Nc3ccc4sccc4c3)n1)N=C[C@@H]1Cc3ccccc3N1C2=O [Compound 137] | 100
51 | COc1cc2c(cc1OCCCC(=O)Nc1cn(C)c(C(=O)Nc3ccc(N)cc3)n1)N=C[C@@H]1Cc3ccccc3N1C2=O [Compound 149] | 400
